Measured values reported in the NIST ThermoML archive (doi:10.1016/j.jct.2017.03.016).

Key:
[1] = refractive index (Na D-line) (dimensionless); wn = mass fraction of the nth substance listed; details: 100 kPa, Liquid, Standard Abbe refractometry
[2] = wn = mass fraction of the nth substance listed; details: for surface tension liquid-gas: Maximal bubble pressure; for mass density: 100 kPa, Liquid, Vibrating tube method

CCn1cc[n+](CCOC)c1.N#C[N-]C#N [1-ethyl-3-(2-methoxyethyl)imidazolium dicyanamide] + O
Details | mass density, [2] [kg/m3] | refractive index, [1] | surface tension liquid-gas, [2] [mN/m]
298.15 K, w2 = 0.00031 | – | – | 51.1
298.15 K, w2 = 0.00148 | 1113.35 | 1.5049 | –
298.15 K, w2 = 0.00175 | – | – | 51.3
298.15 K, w2 = 0.00277 | 1113.18 | 1.5045 | –
298.15 K, w2 = 0.00317 | – | – | 51.7
298.15 K, w2 = 0.00434 | 1112.96 | 1.5041 | –
298.15 K, w2 = 0.00461 | – | – | 52
298.15 K, w2 = 0.0055 | 1112.77 | 1.5037 | –
298.15 K, w2 = 0.00609 | – | – | 52.3
298.15 K, w2 = 0.00719 | 1112.46 | 1.5033 | –
303.15 K, w2 = 0.00031 | – | – | 50.8
303.15 K, w2 = 0.00148 | 1109.96 | 1.5036 | –
303.15 K, w2 = 0.00175 | – | – | 51.1
303.15 K, w2 = 0.00277 | 1109.78 | 1.5032 | –
303.15 K, w2 = 0.00317 | – | – | 51.4
303.15 K, w2 = 0.00434 | 1109.57 | 1.5028 | –
303.15 K, w2 = 0.00461 | – | – | 51.7
303.15 K, w2 = 0.0055 | 1109.37 | 1.5024 | –
303.15 K, w2 = 0.00609 | – | – | 52
303.15 K, w2 = 0.00719 | 1109.06 | 1.5019 | –
308.15 K, w2 = 0.00031 | – | – | 50.5
308.15 K, w2 = 0.00148 | 1106.58 | 1.5024 | –
308.15 K, w2 = 0.00175 | – | – | 50.8
308.15 K, w2 = 0.00277 | 1106.41 | 1.5019 | –
308.15 K, w2 = 0.00317 | – | – | 51.1
308.15 K, w2 = 0.00434 | 1106.19 | 1.5015 | –
308.15 K, w2 = 0.00461 | – | – | 51.4
308.15 K, w2 = 0.0055 | 1106 | 1.501 | –
308.15 K, w2 = 0.00609 | – | – | 51.7
308.15 K, w2 = 0.00719 | 1105.69 | 1.5006 | –
313.15 K, w2 = 0.00031 | – | – | 50.2
313.15 K, w2 = 0.00148 | 1103.23 | 1.5012 | –
313.15 K, w2 = 0.00175 | – | – | 50.5
313.15 K, w2 = 0.00277 | 1103.05 | 1.5007 | –
313.15 K, w2 = 0.00317 | – | – | 50.8
313.15 K, w2 = 0.00434 | 1102.83 | 1.5002 | –
313.15 K, w2 = 0.00461 | – | – | 51.1
313.15 K, w2 = 0.0055 | 1102.64 | 1.4996 | –
313.15 K, w2 = 0.00609 | – | – | 51.4
313.15 K, w2 = 0.00719 | 1102.33 | 1.4992 | –
318.15 K, w2 = 0.00031 | – | – | 49.9
318.15 K, w2 = 0.00148 | 1099.89 | 1.4996 | –
318.15 K, w2 = 0.00175 | – | – | 50.2
318.15 K, w2 = 0.00277 | 1099.72 | 1.4992 | –
318.15 K, w2 = 0.00317 | – | – | 50.5
318.15 K, w2 = 0.00434 | 1099.5 | 1.4987 | –
318.15 K, w2 = 0.00461 | – | – | 50.8
318.15 K, w2 = 0.0055 | 1099.3 | 1.4982 | –
318.15 K, w2 = 0.00609 | – | – | 51.1
318.15 K, w2 = 0.00719 | 1098.99 | 1.4979 | –
323.15 K, w2 = 0.00031 | – | – | 49.6
323.15 K, w2 = 0.00148 | 1096.58 | 1.4984 | –
323.15 K, w2 = 0.00175 | – | – | 49.9
323.15 K, w2 = 0.00277 | 1096.4 | 1.498 | –
323.15 K, w2 = 0.00317 | – | – | 50.2
323.15 K, w2 = 0.00434 | 1096.18 | 1.4975 | –
323.15 K, w2 = 0.00461 | – | – | 50.6
323.15 K, w2 = 0.0055 | 1095.98 | 1.497 | –
323.15 K, w2 = 0.00609 | – | – | 50.8
323.15 K, w2 = 0.00719 | 1095.66 | 1.4965 | –
328.15 K, w2 = 0.00031 | – | – | 49.4
328.15 K, w2 = 0.00148 | 1093.27 | 1.4971 | –
328.15 K, w2 = 0.00175 | – | – | 49.7
328.15 K, w2 = 0.00277 | 1093.1 | 1.4966 | –
328.15 K, w2 = 0.00317 | – | – | 50
328.15 K, w2 = 0.00434 | 1092.88 | 1.496 | –
328.15 K, w2 = 0.00461 | – | – | 50.4
328.15 K, w2 = 0.0055 | 1092.68 | 1.4955 | –
328.15 K, w2 = 0.00609 | – | – | 50.6
328.15 K, w2 = 0.00719 | 1092.36 | 1.4949 | –
333.15 K, w2 = 0.00031 | – | – | 49.1
333.15 K, w2 = 0.00148 | 1090 | 1.4954 | –
333.15 K, w2 = 0.00175 | – | – | 49.5
333.15 K, w2 = 0.00277 | 1089.82 | 1.495 | –
333.15 K, w2 = 0.00317 | – | – | 49.8
333.15 K, w2 = 0.00434 | 1089.59 | 1.4945 | –
333.15 K, w2 = 0.00461 | – | – | 50.1
333.15 K, w2 = 0.0055 | 1089.4 | 1.4939 | –
333.15 K, w2 = 0.00609 | – | – | 50.4
333.15 K, w2 = 0.00719 | 1089.08 | 1.4934 | –
338.15 K, w2 = 0.00031 | – | – | 48.8
338.15 K, w2 = 0.00148 | 1086.74 | 1.4941 | –
338.15 K, w2 = 0.00175 | – | – | 49.2
338.15 K, w2 = 0.00277 | 1086.56 | 1.4935 | –
338.15 K, w2 = 0.00317 | – | – | 49.5
338.15 K, w2 = 0.00434 | 1086.33 | 1.4929 | –
338.15 K, w2 = 0.00461 | – | – | 49.8
338.15 K, w2 = 0.0055 | 1086.13 | 1.4923 | –
338.15 K, w2 = 0.00609 | – | – | 50.1
338.15 K, w2 = 0.00719 | 1085.81 | 1.4919 | –
